Experimental data reported in PubChem BioAssay AID330 (DTP/NCI, 2004).
Where “and” joins values, the source holds several entries; their conditions need not be identical. Equal values may be shown once. Toxic doses and inconclusive results are not listed.

Tested on: P388 leukemia ip, CD2F1 mice, survival T/C
Assay: NCI In Vivo Anticancer Drug Screen. Data for tumor model P388 Leukemia (intraperitoneal) in CD2F1 (CDF1) mice
Settings: endpoint: median survival time, higher = longer survival
Procedure, shortened: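 Mice carrying the transplanted tumor received test compound or vehicle. Survival was recorded in each group, and the value is the treated-group measurement divided by that of the vehicle-treated control group.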

[1] = dose: 25.0 mg/kg/injection, schedule: Q01DX009 (ip), vehicle: saline with Tween-80
[2] = dose: 50.0 mg/kg/injection, schedule: Q01DX009 (ip), vehicle: saline with Tween-80
[3] = dose: 100.0 mg/kg/injection, schedule: Q01DX009 (ip), vehicle: saline with Tween-80
[4] = dose: 200.0 mg/kg/injection, schedule: Q01DX009 (ip), vehicle: saline with Tween-80
[5] = dose: 50.0 mg/kg/injection, schedule: Q01DX005 (ip), vehicle: saline with Tween-80
[6] = dose: 100.0 mg/kg/injection, schedule: Q01DX005 (ip), vehicle: saline with Tween-80
[7] = dose: 200.0 mg/kg/injection, schedule: Q01DX005 (ip), vehicle: saline with Tween-80
[8] = dose: 50.0 mg/kg/injection, schedule: Q01DX009 (ip), vehicle: Klucel (hydroxypropylcellulose) (HPC)
[9] = dose: 100.0 mg/kg/injection, schedule: Q01DX009 (ip), vehicle: Klucel (hydroxypropylcellulose) (HPC)
[10] = dose: 200.0 mg/kg/injection, schedule: Q01DX009 (ip), vehicle: Klucel (hydroxypropylcellulose) (HPC)
[11] = dose: 50.0 mg/kg/injection, schedule: Q01DX009 (ip), vehicle: saline
[12] = dose: 100.0 mg/kg/injection, schedule: Q01DX009 (ip), vehicle: saline
[13] = dose: 25.0 mg/kg/injection, schedule: Q01DX005 (ip), vehicle: Klucel (hydroxypropylcellulose) (HPC)
[14] = dose: 50.0 mg/kg/injection, schedule: Q01DX005 (ip), vehicle: Klucel (hydroxypropylcellulose) (HPC)
[15] = dose: 100.0 mg/kg/injection, schedule: Q01DX005 (ip), vehicle: Klucel (hydroxypropylcellulose) (HPC)
[16] = dose: 200.0 mg/kg/injection, schedule: Q01DX005 (ip), vehicle: Klucel (hydroxypropylcellulose) (HPC)
[17] = dose: 60.0 mg/kg/injection, schedule: Q01DX005 (ip), vehicle: saline

With `CC(=O)n1cc(C2CC(=O)OC3=C2CC(=O)C(C)(C)C3)c2ccccc21` (stereo not given) the T/C [1] was 100 % of control, the T/C [2] was 103 % of control and the T/C [3] was 110 % of control. For the same compound, the T/C [4] was 113 % of control and the T/C (dose: 400.0 mg/kg/injection, schedule: Q01DX009 (ip), vehicle: saline with Tween-80) was 119 % of control.

For `Cn1c(=O)sc2ccccc21`, the T/C (dose: 25.0 mg/kg/injection, schedule: Q04DX002 (ip), vehicle: saline with Tween-80) was 102 % of control, the T/C (dose: 50.0 mg/kg/injection, schedule: Q04DX002 (ip), vehicle: saline with Tween-80) was 104 % of control and the T/C (dose: 100.0 mg/kg/injection, schedule: Q04DX002 (ip), vehicle: saline with Tween-80) was 110 % of control.

`CC(=O)Nc1ccc(S(=O)(=O)N/N=C\c2cc([N+](=O)[O-])ccc2O)cc1` was tested, and the T/C [5] was 103 % of control, the T/C [6] was 101 % of control and the T/C [7] was 93 % of control.

`CC12CC3CC(C)(C1)CC(C/C=N/NC(N)=O)(C3)C2` was tested, and the T/C [8] was 102 % of control, the T/C [9] was 92 % of control and the T/C [10] was 99 % of control.

With `CCCCCC(=O)OC(C)Cl` (stereo not given) the T/C [11] was 99 % of control, the T/C [12] was 97 % of control and the T/C (dose: 200.0 mg/kg/injection, schedule: Q01DX009 (ip), vehicle: saline) was 106 % of control.

For `O=[N+]([O-])c1cc(Br)c2cccc3c2c1CC3`, the T/C [13] was 91 % of control, the T/C [14] was 93 % of control and the T/C [15] was 90 % of control.

For `CCc1nc2c(cnn2C)c(=O)n1-c1ccccc1`, the T/C [14] was 101 % of control, the T/C [15] was 100 % of control and the T/C [16] was 96 % of control.

For `Cc1cc(Nc2ccc(N(CCCl)CCCl)cc2)c(C)cc1O`, the T/C (dose: 200.0 mg/kg/injection, schedule: Q04DX003 (ip), vehicle: Klucel (hydroxypropylcellulose) (HPC)) was 159 % of control.

`CSc1ccc(NC(=O)ON2CCCCC2)cc1` was tested, and the T/C [2] was 99 % of control, the T/C [3] was 108 % of control and the T/C [4] was 101 % of control.

With `O=[N+]([O-])c1cc2c(ccc3occc32)o1` the T/C [14] was 102 % of control, the T/C [15] was 97 % of control and the T/C [16] was 98 % of control.

With `O=C(NNc1ccccc1)c1ccccc1` the T/C (dose: 3.13 mg/kg/injection, schedule: Q01DX009 (ip), vehicle: Klucel (hydroxypropylcellulose) (HPC)) was 100 % of control, the T/C (dose: 6.25 mg/kg/injection, schedule: Q01DX009 (ip), vehicle: Klucel (hydroxypropylcellulose) (HPC)) was 98 % of control and the T/C (dose: 12.5 mg/kg/injection, schedule: Q01DX009 (ip), vehicle: Klucel (hydroxypropylcellulose) (HPC)) was 100 % of control. For the same compound, the T/C (dose: 25.0 mg/kg/injection, schedule: Q01DX009 (ip), vehicle: Klucel (hydroxypropylcellulose) (HPC)) was 100 % of control and the T/C [8] was 113 % of control.

`c1ccc2c3c(c4c(c2c1)CN(C1CCCCC1)CO4)OCN(C1CCCCC1)C3` was tested, and the T/C (dose: 6.25 mg/kg/injection, schedule: Q01DX005 (ip), vehicle: saline with Tween-80) was 106 % of control, the T/C (dose: 12.5 mg/kg/injection, schedule: Q01DX005 (ip), vehicle: saline with Tween-80) was 107 % of control and 112 % of control and the T/C [5] was 116 % of control.

For `CC(C)C12C=CC(C)(CC1)OO2` (stereo not given), the T/C [1] was 104 % of control and the T/C [2] was 100 % of control and 102 % of control.

In the case of `CC(c1ccccc1)n1ccnc1CC#N` (stereo not given), the T/C (dose: 15.0 mg/kg/injection, schedule: Q01DX005 (ip), vehicle: saline) is reported as 101 % of control, the T/C (dose: 30.0 mg/kg/injection, schedule: Q01DX005 (ip), vehicle: saline) is reported as 100 % of control and the T/C [17] is reported as 99 % of control and 98 % of control.

`O=C1c2ccccc2C(=O)N1OCc1cccc(C(F)(F)F)c1` was tested, and the T/C [14] was 98 % of control, the T/C [15] was 90 % of control and the T/C [16] was 86 % of control.

For `N#C/C(=C\Nc1ccccn1)C(=O)c1ccccc1`, the T/C (dose: 60.0 mg/kg/injection, schedule: Q01DX005 (ip), vehicle: saline with Tween-80) was 91 % of control, the T/C (dose: 120.0 mg/kg/injection, schedule: Q01DX005 (ip), vehicle: saline with Tween-80) was 91 % of control and the T/C (dose: 240.0 mg/kg/injection, schedule: Q01DX005 (ip), vehicle: saline with Tween-80) was 91 % of control.

For `CCCCCCC(=O)/C=C/c1cc(OC)c(OC)c(OC)c1`, the T/C [2] was 101 % of control, the T/C [3] was 96 % of control and the T/C [4] was 92 % of control.

`CCCn1c(CC)nc2c(cnn2C)c1=O` was tested, and the T/C [14] was 101 % of control, the T/C [15] was 101 % of control and the T/C [16] was 101 % of control.

For `COc1ccc2c(c1)/C(=C/CCN(C)C)c1ccccc1S2`, the T/C (dose: 12.5 mg/kg/injection, schedule: Q04DX003 (ip), vehicle: saline) was 113 % of control and the T/C (dose: 25.0 mg/kg/injection, schedule: Q04DX003 (ip), vehicle: saline) was 109 % of control.

`CC12CCCN(CCCl)C1CCC1C2CCC2(C)C1CCCN2CCCl` (stereo not given) was tested, and the T/C (dose: 0.78 mg/kg/injection, schedule: Q01DX001 (ip), vehicle: saline with Tween-80) was 108 % of control, the T/C (dose: 1.56 mg/kg/injection, schedule: Q01DX001 (ip), vehicle: saline with Tween-80) was 112 % of control and 118 % of control and the T/C (dose: 1.56 mg/kg/injection, schedule: Q01DX001 (ip), vehicle: saline) was 102 % of control. The T/C (dose: 3.13 mg/kg/injection, schedule: Q01DX001 (ip), vehicle: saline with Tween-80) was 117 % of control.

With `O=C(Nc1cc(Nc2ccc(NC(=O)c3ccccc3)c3c2C(=O)c2ccccc2C3=O)cc2c1C(=O)c1ccccc1C2=O)c1ccccc1` the T/C [14] was 103 % of control, the T/C [15] was 103 % of control and the T/C [16] was 97 % of control.

For `CC1CC(N)=NC1C(=O)NCCC#N` (stereo not given), the T/C (dose: 12.5 mg/kg/injection, schedule: Q01DX009 (ip), vehicle: saline) was 97 % of control, the T/C (dose: 25.0 mg/kg/injection, schedule: Q01DX009 (ip), vehicle: saline) was 101 % of control and the T/C [11] was 98 % of control. For the same compound, the T/C [12] was 90 % of control.

With `CCN(CC)c1ccc(/C=N\Nc2ccc([N+](=O)[O-])cn2)cc1` the T/C [5] was 93 % of control, the T/C [6] was 90 % of control and the T/C [7] was 87 % of control.

In the case of `O=C1c2ccccc2SC[C@@H]2CCCN12`, the T/C [17] is reported as 101 % of control, the T/C (dose: 120.0 mg/kg/injection, schedule: Q01DX005 (ip), vehicle: saline) is reported as 99 % of control and the T/C (dose: 240.0 mg/kg/injection, schedule: Q01DX005 (ip), vehicle: saline) is reported as 99 % of control.

For `C1=C(N2CCOCC2)N(c2ccccc2)c2ccccc2N=C1N1CCCC1`, the T/C (dose: 12.5 mg/kg/injection, schedule: Q01DX005 (ip), vehicle: Klucel (hydroxypropylcellulose) (HPC)) was 100 % of control, the T/C [13] was 91 % of control and the T/C [14] was 103 % of control and 96 % of control.

`C=C(C)C(=O)N1c2ccc(OC)cc2CC1C(=O)OCC` (stereo not given) was tested, and the T/C (dose: 60.0 mg/kg/injection, schedule: Q01DX005 (ip), vehicle: saline + Tween-80 + alcohol) was 102 % of control, the T/C (dose: 120.0 mg/kg/injection, schedule: Q01DX005 (ip), vehicle: saline + Tween-80 + alcohol) was 100 % of control and the T/C (dose: 240.0 mg/kg/injection, schedule: Q01DX005 (ip), vehicle: saline + Tween-80 + alcohol) was 97 % of control.

In the case of `N=C(N)Sc1ccc([N+](=O)[O-])cc1Cl`, the T/C [14] is reported as 104 % of control, the T/C [15] is reported as 104 % of control and the T/C [16] is reported as 101 % of control.

With `COc1cccc2c1C(=O)c1c(O)c3c(c(O)c1C2=O)C[C@@](O)(C(=O)COC(=O)c1ccccc1)C[C@@H]3OC1CC(N)C(O)C(C)O1` (stereo not given in full) the T/C (dose: 0.5 mg/kg/injection, schedule: Q01DX009 (ip), vehicle: saline sonified) was 168 % of control, the T/C (dose: 1.0 mg/kg/injection, schedule: Q01DX009 (ip), vehicle: saline sonified) was 186 % of control and the T/C (dose: 2.0 mg/kg/injection, schedule: Q01DX009 (ip), vehicle: saline sonified) was 190 % of control.

In the case of `O=C1c2ccccc2C(=O)N1SN1C(=O)c2ccccc2C1=O`, the T/C [8] is reported as 110 % of control, the T/C [9] is reported as 109 % of control and the T/C [10] is reported as 102 % of control. For the same compound, the T/C (dose: 400.0 mg/kg/injection, schedule: Q01DX009 (ip), vehicle: Klucel (hydroxypropylcellulose) (HPC)) was 109 % of control.

For `Nc1nc(-c2ccc(Nc3ccnc4cc(Cl)ccc34)cc2)cs1`, the T/C [5] was 96 % of control, the T/C [6] was 88 % of control and the T/C [7] was 86 % of control.

With `CC1=NCC(C)c2ccccc21` (stereo not given) the T/C (dose: 6.25 mg/kg/injection, schedule: Q01DX009 (ip), vehicle: saline with Tween-80) was 96 % of control and the T/C (dose: 12.5 mg/kg/injection, schedule: Q01DX009 (ip), vehicle: saline with Tween-80) was 95 % of control.
